Test results from patent US20090074802A1, “IMMUNOMODULATING OLIGOPEPTIDES” (priority 2006, published 2009).

Tested on: Balb/c mice immunized with KLH
Assay: Humoral immune response to T-cell dependent antigen (KLH) in mice; isotype-specific anti-KLH ELISA of serum
Format: in vivo, mouse
Details: day 28 after a single injection; 20 μg peptide i.p.; KLH 20 μg s.c. with complete Freund adjuvant
Method: To investigate the effect of B134, a representative of the XPY family, inbred SPF mice (Balb/cAwNCrl, 7 to 8 week old, Charles River Laboratories GmbH, Germany) were immunized with KLH, a T-cell dependent antigen. 3 mice per group were injected subcutaneously in the presence of complete Freund adjuvant (50/50 v/v). The mix of antigen (20 μg in 100 μl) with adjuvant (Sigma, #F-5881) was emulsified and injected in the neck region. At the same day 20 μg of immunomodulator B134 or B211 were injected in 200 μl of PBS intraperitoneally. Samples of blood (50-70 μl) were collected from mice on day 7, 14, 21, and 28 from the leg vein. Serum was prepared by clotting the blood for 2 hours at 37° C., followed by 18 hours at 8° C., and centrifugation at 10,000 rpm in an Eppendorf-like centrifuge. Sera were stored diluted with antibody stabilizer (SkyTec ABB500) at 4° C., and analyzed in ELISA simultaneously. For the latter assay, the 96 wells ELISA plates (Greiner, #655061) were coated with KLH (soluble, Sigma H7017) in phosphate buffered solution (PBS), 0.2 μg/well overnight at 4° C. The diluted sera were incubated with antigen ([…]) for 1 hour at room temperature, followed by a wash with PBS/0.1% Tween-20. The binding of mouse antibodies to KLH was detected using isotype specific anti-mouse immunoglobulins, conjugated with HRP (Southern Biotechnology Ltd., anti-mouse IgM #1021-05, anti-mouse IgG1 #1070-05, anti-mouse IgG2a # 1080-05, anti-mouse IgG2b #1090-05) according to the manufacturer's protocol. TMB was used as a substrate. The results were analyzed on Bio-Rad Microplate Reader Model 550, the optical density was measured at 595 nm.
Results shown in FIG. 1 represent titration slope of the serum from experimental mice. The dilutions of sera used are from 1/300 to 1/20,000 with a step of ½ (indicated on X axis as 1 to 6 respectively). The serum reactivity is presented as O.D. shown by a sample in ELISA. The dots represent the average reactivity of samples from 3 sera (from 3 mice per condition). The variation bar represents the 95% confidence interval.

Substance	titer of IgG2a, times higher than in control mice immunized with antigen alone	titer of IgG2b, times higher than in control mice immunized with antigen alone	titre of specific IgG1 in sera, times higher than in control mice immunized with antigen alone	titer of IgM, times higher than in control mice immunized with antigen alone (every isotype analyzed)
IEWIPY [B211]	~4 times	~4 times	approximately 16 times	
Ile-Pro-Tyr [B134]	approximately 2 times	approximately 2 times	approximately 2 times	approximately 2 times
